Source: patent publication US20260125368A1, “SALT OF GLP-1R AGONIST, PREPARATION METHOD THEREFOR AND USE THEREOF” (MINDRANK AI LTD., priority 2022, published 2026)

Assay: Hygroscopic behavior test by dynamic vapor sorption (DVS)
Format: physicochemical
Settings: 25° C.; for Did the crystal form change before and after the test?: 0-90% RH; for Hygroscopicity / 80% RH sample weight change (%): 80% RH; for 80% RH sample weight change (%): adsorption 0-90% RH
Source text: The experimental method for characterizing an acid salt or a base salt of compound I by dynamic vapor sorption (DVS) was as follows: A small amount of a powder of the acid salt or the base salt of compound I was taken and placed into a precise sample tray that matches the instrument. After the sample was loaded, the sample tray was sent into the instrument for analysis. In the present disclosure, the instrument model used in the dynamic vapor sorption analysis was Intrinsic PLUS; the experimental parameter was set as follows: a constant temperature of 25° C. was set; the mass percent change rate per unit time (dm/dt)=0.02%/min was used as a criterion for determining that a balance is achieved; the program humidity change cycle was set as follows: the initial relative humidity was 0%, and the endpoint relative humidity was 90%.
The hygroscopic behavior of a compound affects the production, storage, stability, and quality of the drug.

Compound | Did the crystal form change before and after the test? | Hygroscopicity | 80% RH sample weight change (%)
O=C(O)c1ccc2nc(CN3CCC(Oc4cccc(COc5ccc(Cl)cc5F)n4)CC3)n(C[C@@H]3CCO3)c2c1 [Free form of compound I-1, (S)-2-((4-((6-((4-chloro-2-fluorophenoxy)methyl)pyridin-2-yl)oxy)piperidin-1-yl)methyl)-1-(oxetan-2-ylmethyl)-1H-benzo[d]imidazole-6-carboxylic acid] | no solid form change was observed and No | slightly hygroscopic | 0.90
N#Cc1ccc(OCc2cccc(OC3CCN(Cc4nc5ccc(C(=O)O)cc5n4C[C@@H]4CCO4)CC3)n2)c(F)c1 [Free form of compound I-2, (S)-2-((4-((6-((4-cyano-2-fluorophenoxy)methyl)pyridin-2-yl)oxy)piperidin-1-yl)methyl)-1-(oxetan-2-ylmethyl)-1H-benzo[d]imidazole-6-carboxylic acid] | no solid form change was observed and No | slightly hygroscopic | 0.71
